Assays:
Test in all cases: normalised response (% of control), CellTox Green; higher = less cell death (100 = DMSO, 0 = benzethonium chloride kill control)
Details in all cases: incubation time: 72 h
DU-4475 = test system: DU-4475
Outline: (§1)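 Values are normalised signals, each belonging to one concentration of the series. Breast cancer cells (20 µl suspension) were seeded into 384-well plates with compound at 5 concentrations in 10-fold steps over a compound-specific 10,000-fold range and incubated 72 h. Readouts were CellTox Green fluorescence (485/520 nm), then CellTiter-Glo luminescence after 10 min at room temperature, with each plate set to 0.1 % DMSO as 100 and a positive kill control as 0.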

MFM-223 = test system: MFM-223
Outline: as §1

HDQ-P1 = test system: HDQ-P1
Outline: as §1

CAL-120 = test system: CAL-120
Outline: as §1

BT-474 = test system: BT-474
Outline: as §1

BT-549 = test system: BT-549
Outline: as §1

MDA-MB-436 = test system: MDA-MB-436
Outline: as §1

HCC1599 = test system: HCC1599
Outline: as §1

MCF-10A = test system: MCF-10A
Outline: as §1

CAL-148 = test system: CAL-148
Outline: as §1

CAL-51 = test system: CAL-51
Outline: as §1

Hs578T = test system: Hs578T
Outline: as §1

MDA-MB-468 = test system: MDA-MB-468
Outline: as §1

Structure (SMILES): COc1ccc(-c2cc3c(C)nc(N)nc3n([C@H]3CC[C@H](OCCO)CC3)c2=O)cn1 (1000 nM)
- normalised response (DU-4475): 86.2%
- normalised response (MFM-223): 81%
- normalised response (HDQ-P1): 84.7%
- normalised response (CAL-120): 98.5%
- normalised response (BT-474): 49.8%
- normalised response (BT-549): 115%
- normalised response (MDA-MB-436): 113%
- normalised response (HCC1599): 90.4%
- normalised response (MCF-10A): 93.2%
- normalised response (CAL-148): 51.2%
- normalised response (CAL-51): 43.9%
- normalised response (Hs578T): 101%
- normalised response (MDA-MB-468): 123%

Structure (SMILES): COc1ccc(-c2cc3c(C)nc(N)nc3n([C@H]3CC[C@H](OCCO)CC3)c2=O)cn1 (10000 nM)
- normalised response (DU-4475): 67.2%
- normalised response (MFM-223): 52.8%
- normalised response (HDQ-P1): -2.73%
- normalised response (CAL-120): 75.8%
- normalised response (BT-474): -9.27%
- normalised response (BT-549): 0.06%
- normalised response (MDA-MB-436): 100%
- normalised response (HCC1599): 92.1%
- normalised response (MCF-10A): 72.4%
- normalised response (CAL-148): -9.66%
- normalised response (CAL-51): 17.6%
- normalised response (Hs578T): 28.7%
- normalised response (MDA-MB-468): 59.9%

Structure (SMILES): O=C(Nc1c[nH]nc1-c1nc2ccc(CN3CCOCC3)cc2[nH]1)NC1CC1 [AT9283] (1000 nM)
- normalised response (DU-4475): 106%
- normalised response (MFM-223): 75%
- normalised response (HDQ-P1): 88.2%
- normalised response (CAL-120): 57.7%
- normalised response (BT-474): 89.1%
- normalised response (BT-549): 70.5%
- normalised response (MDA-MB-436): 77.6%
- normalised response (HCC1599): 105%
- normalised response (MCF-10A): 88.4%
- normalised response (CAL-148): 83.9%
- normalised response (CAL-51): 56%
- normalised response (Hs578T): 83.2%
- normalised response (MDA-MB-468): 65.6%

Structure (SMILES): COc1cc(CCc2cc(NC(=O)c3ccc(N4CC(C)NC(C)C4)cc3)n[nH]2)cc(OC)c1 (stereo not given) [AZD4547] (100 nM)
- normalised response (DU-4475): 97.8%
- normalised response (MFM-223): 97.4%
- normalised response (HDQ-P1): 89.4%
- normalised response (CAL-120): 99.3%
- normalised response (BT-474): 96.5%
- normalised response (BT-549): 118%
- normalised response (MDA-MB-436): 91%
- normalised response (HCC1599): 90.6%
- normalised response (MCF-10A): 105%
- normalised response (CAL-148): 101%
- normalised response (CAL-51): 95.6%
- normalised response (Hs578T): 94%
- normalised response (MDA-MB-468): 117%

Structure (SMILES): COc1cc(CCc2cc(NC(=O)c3ccc(N4CC(C)NC(C)C4)cc3)n[nH]2)cc(OC)c1 (stereo not given) [AZD4547] (1000 nM)
- normalised response (DU-4475): 98.5%
- normalised response (MFM-223): 95.5%
- normalised response (CAL-120): 89.5%
- normalised response (BT-474): 99.9%
- normalised response (BT-549): 90%
- normalised response (MDA-MB-436): 95.4%
- normalised response (HCC1599): 100%
- normalised response (MCF-10A): 63.9%
- normalised response (CAL-148): 57.8%
- normalised response (CAL-51): 96.6%
- normalised response (Hs578T): 115%
- normalised response (MDA-MB-468): 190%

Structure (SMILES): CCC/C=C/C=C/C(=O)O[C@H]1/C(=C/C(=O)OC)C[C@H]2C[C@H]([C@@H](C)O)OC(=O)C[C@H](O)C[C@@H]3C[C@H](OC(C)=O)C(C)(C)[C@](O)(C[C@@H]4C/C(=C/C(=O)OC)C[C@H](/C=C/C(C)(C)[C@]1(O)O2)O4)O3 [Bryostatin 1] (10 nM)
- normalised response (DU-4475): 106%
- normalised response (MFM-223): 88%
- normalised response (CAL-120): 102%
- normalised response (BT-474): 106%
- normalised response (BT-549): 139%
- normalised response (MDA-MB-436): 74.1%
- normalised response (HCC1599): 115%
- normalised response (MCF-10A): 109%
- normalised response (CAL-148): 108%
- normalised response (CAL-51): 92%
- normalised response (Hs578T): 109%
- normalised response (MDA-MB-468): 116%

Structure (SMILES): CCC/C=C/C=C/C(=O)O[C@H]1/C(=C/C(=O)OC)C[C@H]2C[C@H]([C@@H](C)O)OC(=O)C[C@H](O)C[C@@H]3C[C@H](OC(C)=O)C(C)(C)[C@](O)(C[C@@H]4C/C(=C/C(=O)OC)C[C@H](/C=C/C(C)(C)[C@]1(O)O2)O4)O3 [Bryostatin 1] (100 nM)
- normalised response (DU-4475): 112%
- normalised response (MFM-223): 104%
- normalised response (HDQ-P1): 73.7%
- normalised response (CAL-120): 99.8%
- normalised response (BT-474): 93.1%
- normalised response (BT-549): 122%
- normalised response (HCC1599): 118%
- normalised response (MCF-10A): 103%
- normalised response (CAL-148): 105%
- normalised response (CAL-51): 104%
- normalised response (Hs578T): 114%
- normalised response (MDA-MB-468): 150%

Structure (SMILES): CO[C@@H](C(=O)N1Cc2[nH]nc(NC(=O)c3ccc(N4CCN(C)CC4)cc3)c2C1)c1ccccc1 [Danusertib] (1000 nM)
- normalised response (DU-4475): 97.3%
- normalised response (MFM-223): 92.9%
- normalised response (HDQ-P1): 105%
- normalised response (CAL-120): 94%
- normalised response (BT-474): 102%
- normalised response (BT-549): 112%
- normalised response (HCC1599): 104%
- normalised response (MCF-10A): 110%
- normalised response (CAL-148): 45.1%
- normalised response (CAL-51): 57.8%
- normalised response (MDA-MB-468): 51.4%

Structure (SMILES): CO[C@@H](C(=O)N1Cc2[nH]nc(NC(=O)c3ccc(N4CCN(C)CC4)cc3)c2C1)c1ccccc1 [Danusertib] (10000 nM)
- normalised response (DU-4475): 102%
- normalised response (MFM-223): 94.9%
- normalised response (HDQ-P1): 48%
- normalised response (CAL-120): 28.7%
- normalised response (BT-474): 91.6%
- normalised response (BT-549): 53.1%
- normalised response (MDA-MB-436): 75.7%
- normalised response (HCC1599): 106%
- normalised response (MCF-10A): 57.6%
- normalised response (CAL-148): 90.5%
- normalised response (CAL-51): 22.9%
- normalised response (Hs578T): -40.1%
- normalised response (MDA-MB-468): 55.9%

Structure (SMILES): Cc1nc(Nc2ncc(C(=O)Nc3c(C)cccc3Cl)s2)cc(N2CCN(CCO)CC2)n1 [Dasatinib] (100 nM)
- normalised response (DU-4475): 102%
- normalised response (MFM-223): 91.5%
- normalised response (HDQ-P1): 90.2%
- normalised response (CAL-120): 97.2%
- normalised response (BT-474): 94.4%
- normalised response (BT-549): 85.9%
- normalised response (MDA-MB-436): 107%
- normalised response (HCC1599): 95.6%
- normalised response (MCF-10A): 112%
- normalised response (CAL-148): 98.8%
- normalised response (CAL-51): 68.4%
- normalised response (Hs578T): 90.8%
- normalised response (MDA-MB-468): 101%

Structure (SMILES): Cc1nc(Nc2ncc(C(=O)Nc3c(C)cccc3Cl)s2)cc(N2CCN(CCO)CC2)n1 [Dasatinib] (1000 nM)
- normalised response (DU-4475): 96.6%
- normalised response (HDQ-P1): 81.3%
- normalised response (CAL-120): 100%
- normalised response (BT-474): 103%
- normalised response (BT-549): 39.7%
- normalised response (MDA-MB-436): 97%
- normalised response (HCC1599): 102%
- normalised response (MCF-10A): 63%
- normalised response (CAL-148): 104%
- normalised response (CAL-51): 75.6%
- normalised response (Hs578T): 5.15%
- normalised response (MDA-MB-468): 99.7%

Structure (SMILES): Cc1c(CN2CCN(C(=O)[C@H](C)O)CC2)sc2c(N3CCOCC3)nc(-c3cnc(N)nc3)nc12 [GDC-0980] (1000 nM)
- normalised response (DU-4475): 98.7%
- normalised response (MFM-223): 76.5%
- normalised response (HDQ-P1): 103%
- normalised response (CAL-120): 103%
- normalised response (BT-474): 85.6%
- normalised response (BT-549): 108%
- normalised response (MDA-MB-436): 102%
- normalised response (HCC1599): 99.9%
- normalised response (MCF-10A): 100%
- normalised response (CAL-148): 68.3%
- normalised response (CAL-51): 90.8%
- normalised response (Hs578T): 107%
- normalised response (MDA-MB-468): 117%

— the supplement of paper PMC4862054
